Results: paper PMC5641094, “A peptide antagonist of Prep1-p160 interaction improves ceramide-induced insulin resistance in skeletal muscle cells” (Oncotarget, 2017)
Ends that are not written are not given here. * marks the point of attachment. Biotin = O=C1N[C@H]2[C@H](CS[C@H]2CCCCC(=O)*)N1

Assays:
Prep1 mRNA = assay: Real-time RT-PCR of Prep1 mRNA in L6 cells; format: cell-based, rat; conditions: preliminary data
Method: (§1) Figure 2 Effect of ceramides on Prep1 and p160 mRNA expression and of Prep1-p160 coprecipitation L6 cells were treated with C2cer (10μM) for 18h and Prep1 (A) or p160 (B) mRNA levels were analyzed by real-time RT-PCR analysis. Data were normalized by the amount of GAPDH mRNA, used as internal control. Bars represent the mean ± SD of three independent experiments, each performed in triplicate. (C) L6 cells were treated with cycloheximide (CHX) at 40μg/mL concentration for 18h and the lysates were analyzed by Western blot with anti-p160 and beta-actin. The autoradiograph shown is representative of three different experiments and subjected to densitometric analysis. (D) Protein lysates from L6 cells treated with C2cer as indicated, were immunoprecipitated with Prep1 antibody and immunoblotted with p160 or Prep1 antibodies. The autoradiograph shown is representative of three different experiments and subjected to densitometric analysis. Asterisks denote statistically significant differences (*p<0.05; **p<0.01).
Total cellular RNA was isolated from L6 cells by using the RNeasy kit (QIAGEN Sciences, Germany), according to manufacturer instructions. 1μg of cell RNA was reverse-transcribed using Superscript III Reverse Transcriptase (Life Technologies Carlsbad, CA, USA). PCR reactions were analyzed using IQTM SYBR Green Supermix (Bio-Rad, Hercules, CA). […]

p160_20-160 = biological target: T1, p160_20-160 (Homo sapiens, UniProt Q9BQG0); assay: ELISA-like direct binding of biotinylated Prep1 peptides to coated p160_20-160; conditions: N-terminally biotinylated peptide variants; plate coated with p160_20-160 (0.1μM); streptavidin-HRP; one-site binding fit; triplicate, performed at least twice
T1 construct: were added to a plate coated with p160_20-160 (0.1μM); His6; made in house
T1 sequence (Q9BQG0 20-160): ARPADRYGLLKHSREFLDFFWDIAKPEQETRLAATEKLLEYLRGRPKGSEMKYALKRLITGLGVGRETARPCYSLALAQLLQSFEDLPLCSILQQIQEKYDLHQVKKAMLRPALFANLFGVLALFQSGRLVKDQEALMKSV
Description: To address the significance of the association between Prep1 and p160 mediated by C2cer, we generated a synthetic inhibitor of the Prep1/p160 interaction. […] The synthetic peptide covering such stretch of residues was therefore chosen to generate a potential inhibitor. […] Thus, we designed and chemically synthesized a peptide spanning residues 59-72, hereafter Prep1(59-72), which comprises the predicted α-helix and a short loop at the N-terminus (Supplementary Figure 2A, upper panel). […]
(§2) Figure 3 Design and in vitro effects of Prep1(54-72) peptide on Prep1/p160 association (A) Binding curves of Prep1(59-72) and Prep1(54-72) peptides to p160_20-160 by ELISA-like assays. […] (C) L6 cells were incubated with increasing concentrations of the fluorescein-conjugated peptide (FITC-Prep1(54-72)) and peptide uptake was detected by FACS analysis of fluorescein-labeled cells. […] Protein lysates were immunoprecipitated with Prep1 antibodies and analyzed by Western blot using antibodies for p160 or for Prep1. […] The blots were detected by ECL and autoradiography. […]
ELISA experiments were performed using an integrated platform for High-Throughput Screening (Hamilton Robotics, Bonaduz, CH) comprising a fully equipped Starlet 8 channel liquid handler, a robotic arm, a washer and a multi-wavelength plate reader. […] The binding was detected by anti-His HRP-conjugated antibody. […]

[1] = biological target: T2, p160_20-160/Prep1_45-155 binding (Homo sapiens, UniProt Q9BQG0); assay: ELISA-like competition of p160_20-160/Prep1_45-155 binding; conditions: His6-p160_20-160 0.25μM pre-incubated with peptide 0.001-10μM; plate coated with Prep1_45-155 (0.10μM); anti-His HRP; average of three experiments
T2 construct: pre-incubating the His6-tagged-p160_20-160 at 0.25μM with peptides; made in house
T2 sequence (Q9BQG0 20-160): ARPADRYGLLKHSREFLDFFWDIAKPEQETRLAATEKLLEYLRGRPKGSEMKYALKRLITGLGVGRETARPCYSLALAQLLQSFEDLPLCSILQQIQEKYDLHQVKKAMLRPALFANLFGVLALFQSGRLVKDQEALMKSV
Description: To address the significance of the association between Prep1 and p160 mediated by C2cer, we generated a synthetic inhibitor of the Prep1/p160 interaction. […] The synthetic peptide covering such stretch of residues was therefore chosen to generate a potential inhibitor. […] Thus, we designed and chemically synthesized a peptide spanning residues 59-72, hereafter Prep1(59-72), which comprises the predicted α-helix and a short loop at the N-terminus (Supplementary Figure 2A, upper panel). We also designed and prepared an additional peptide with a slightly longer N-terminal end, named Prep1(54-72) (Supplementary Figure 2A, lower panel), to increase the probability of obtaining a molecule with helical features. […] In order to test the affinity of Prep1 synthetic peptides to p160 protein, ELISA-like experiments were developed where N-terminally biotinylated peptide variants were added to p160_20-160 – coated 96-well plates. As shown in Figure 3A either variants bound p160_20-160 domain in a dose-dependent and saturable manner. […]
as §2
ELISA experiments were performed using an integrated platform for High-Throughput Screening (Hamilton Robotics, Bonaduz, CH) comprising a fully equipped Starlet 8 channel liquid handler, a robotic arm, a washer and a multi-wavelength plate reader. […] In particular, several concentrations of biotinylated peptides at several concentrations were added to a plate coated with p160_20-160 (0.1μM) and binding was detected with streptavidin-HRP. […] The binding was detected by anti-His HRP-conjugated antibody. […]

L6 cells [2] = assay: Glycogen content in L6 cells; format: cell-based, rat; conditions: insulin 100nM, mean of three experiments
Method: (§3) Figure 6 Effect of Prep1(54-72) peptide on glycogen content and 2-DG uptake L6 control and Prep1 overexpressing cells were stimulated with Insulin (100nM) and/or C2cer (10μM) and incubated with Prep1(54-72). (A) Glycogen content and (B) 2-DG uptake were measured as described in methods. Bars represent the mean ± SD of three independent experiments. Asterisks denote statistically significant differences (*p<0.05; **p<0.01; ***p<0.001).
(§4) Glycogen was isolated from L6 cells homogenized in 0.1% SDS, saturated with Na2SO4 for 30 minutes at 37°C, followed by ethanol (EtOH) precipitation. Glycogen content was determined as previously described. 2-DG uptake by the L6 cells was measured as previously reported.

[3] = tested on: IRS1 tyrosine phosphorylation; assay: IRS1 tyrosine phosphorylation, immunoprecipitation and Western blot; format: cell-based, rat; conditions: L6 cells, insulin 100nM
Method: (§5) Figure 4 Prep1(54-72) peptide restores the insulin signaling inhibited by C2cer and Prep1 L6 cells were stimulated with insulin (100nM) and incubated with Prep1(54-72) in presence of C2cer at 10μM for 18h (A-B) or stable transfection of Prep1 (C-D). Protein lysates were immunoprecipitated with specific IR or IRS1 antibodies and analyzed by Western blot using antibodies for phosphotyrosines (pY) and beta-actin as loading control. Blots were detected by ECL and autoradiography. The autoradiographs are representative of three independent experiments. Asterisks denote statistically significant differences (*p<0.05; **p<0.01).
(§6) Total cell lysates were obtained and separated by SDS-PAGE. Briefly, cells were solubilized with lysis buffer containing 50mM HEPES, 150mM NaCl, 10mM EDTA, 10mM Na4P2O7, 2mM sodium orthovanadate, 50mM NaF, 1mM phenylmethylsulfonyl fluoride, 10μg/ml aprotinin, 10μg/ml leupeptin, pH 7.4, and 1% (v/v) Triton X-100. Lysates were clarified by centrifugation at 12,000g for 20 minutes at 4°C. The protein concentrations in the cell lysates were measured using a Bio-Rad DC (detergent compatible) assay. Immunoprecipitation and Western blot analysis have been performed as previously described.

[4] = tested on: IR tyrosine phosphorylation; assay: IR tyrosine phosphorylation, immunoprecipitation and Western blot; format: cell-based, rat; conditions: L6 cells, insulin 100nM
Method: as §5, §6

L6 cells [5] = assay: 2-DG uptake in L6 cells; format: cell-based, rat; conditions: insulin 100nM, mean of three experiments
Method: as §3, §4

[6] = tested on: Prep1 and p160 protein levels in L6 cells; assay: Western blot of Prep1 and p160 protein levels in L6 cells; format: cell-based, rat; conditions: CHX 40μg/ml, 18h
Method: Figure 1 Effect of ceramides dose-response and time-course on Prep1 and p160 protein levels L6 skeletal muscle cells were treated with different concentration of C2cer (10μM and 100μM for 18h) (A) and for different time (10μM for 6h and 18h) (B). Protein lysates were analyzed by Western blot using antibodies for Prep1, p160 and for the beta-actin, as a loading control. Blots were detected by ECL and autoradiography. The autoradiographs are representative of four independent experiments. Asterisks denote statistically significant differences (*p<0.05; **p<0.01).
as §1
Figure 3 Design and in vitro effects of Prep1(54-72) peptide on Prep1/p160 association (A) Binding curves of Prep1(59-72) and Prep1(54-72) peptides to p160_20-160 by ELISA-like assays. Biotinylated peptides at several concentrations were added in triplicate to a 96-well plate coated with p160_20-160 (0.1μM). Experiments were performed at least twice and the average results fitted using GraphPad Prism. […] (B) Competition binding experiments. His6-tagged-p160_20-160 at 0.25μM was incubated with Prep1(59-72) and Prep1(54-72) at concentrations ranging between 0.001÷10μM and added to a 96-well plate coated with Prep1_45-155 (0.10μM). Results are the average of three independent experiments. (C) L6 cells were incubated with increasing concentrations of the fluorescein-conjugated peptide (FITC-Prep1(54-72)) and peptide uptake was detected by FACS analysis of fluorescein-labeled cells. Bars represent the mean ± SD of four independent experiments. (D) L6 muscle cells incubated with Prep1(54-72) were stimulated with C2cer (10μM) for 18h. Protein lysates were immunoprecipitated with Prep1 antibodies and analyzed by Western blot using antibodies for p160 or for Prep1. (E) An aliquot of the lysate was used to measure protein expression of Prep1 and p160 and the beta-actin used as loading control. The blots were detected by ECL and autoradiography. The autoradiograph is representative of three independent experiments. Asterisks denote statistically significant differences (*p<0.05; **p<0.01).
L6 rat skeletal muscle cells (ATCC, Manassas, VA, USA) were cultured in DMEM supplemented with 10% FBS and 1% penicillin/streptomycin solution at 37°C in a humidified 95% air and 5% CO2 atmosphere (all vol./vol.). […]
Total cell lysates were obtained and separated by SDS-PAGE. […] The protein concentrations in the cell lysates were measured using a Bio-Rad DC (detergent compatible) assay. […]

His6-tagged p160(20-160) = biological target: T3, His6-tagged p160(20-160) (UniProt Q7TPV4 20-160); assay: ELISA; ELISA-like direct binding: 96-well plate coated with p160(20-160) (0.1 uM); biotinylated peptides at several concentrations added in triplicate; detection with streptavidin-HRP; one-site binding fit (GraphPad Prism); conditions: both partners purified
T3 construct: also called His6-p160(20-160); p160(20-160) domain
T3 sequence (looked up): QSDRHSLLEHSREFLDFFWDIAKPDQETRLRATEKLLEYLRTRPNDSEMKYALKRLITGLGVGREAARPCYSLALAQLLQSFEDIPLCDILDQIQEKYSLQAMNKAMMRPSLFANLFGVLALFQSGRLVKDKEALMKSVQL

## Cc1ccc(NCCCc2ccccc2)c(N)c1 [JSH-23]
Prep1 mRNA
  effect on C2cer-induced Prep1 mRNA expression: reverts the effect of C2cer

## Ac-RHPLFPLLALLFEK-NH2 [Prep1(59-72)]
p160_20-160
  Kd: 1250 nM
[1]
  IC50, inhibition of p160_20-160/Prep1_45-155 binding: did not converge to a meaningful value

## insulin: insulin used at 100nM to stimulate L6 cells
L6 cells [2]
  stimulation of glycogen synthesis: 1.3 fold
[3]
  stimulation of IRS1 tyrosine phosphorylation: 1.1 fold
[4]
  stimulation of IR tyrosine phosphorylation: 1.5 fold
L6 cells [5]
  stimulation of glucose uptake (2-DG): 2.1 fold

## C[C@@H]1C[C@@H]([C@H](O)CC2CC(=O)NC(=O)C2)C(=O)[C@@H](C)C1 [cycloheximide (CHX), cycloheximide]
[6]
  reduction of p160 cellular levels: 50%

B1: N-terminally biotinylated Prep1(59-72) peptide (peptide)
peptide: Biotin-RHPLFPLLALLFEK
notes: Prep1 (Pbx regulating protein 1), stretch of the HR1 domain, named residues 59-72; source: synthetic peptide (Fmoc solid phase, RP-HPLC purified), biotin labelled
His6-tagged p160(20-160)
  Kd: 1250 ± 80 nM

B2: N-terminally biotinylated Prep1(54-72) peptide (peptide)
peptide: Biotin-KQAIYRHPLFPLLALLFEK
notes: Prep1 (Pbx regulating protein 1), stretch of the HR1 domain, named residues 54-72; source: synthetic peptide (Fmoc solid phase, RP-HPLC purified), biotin labelled
His6-tagged p160(20-160)
  Kd: 180 ± 40 nM
